SMILES strings stand for the structures.

Chain of PRKG2 (human) (Q13237 whole entry, looked up): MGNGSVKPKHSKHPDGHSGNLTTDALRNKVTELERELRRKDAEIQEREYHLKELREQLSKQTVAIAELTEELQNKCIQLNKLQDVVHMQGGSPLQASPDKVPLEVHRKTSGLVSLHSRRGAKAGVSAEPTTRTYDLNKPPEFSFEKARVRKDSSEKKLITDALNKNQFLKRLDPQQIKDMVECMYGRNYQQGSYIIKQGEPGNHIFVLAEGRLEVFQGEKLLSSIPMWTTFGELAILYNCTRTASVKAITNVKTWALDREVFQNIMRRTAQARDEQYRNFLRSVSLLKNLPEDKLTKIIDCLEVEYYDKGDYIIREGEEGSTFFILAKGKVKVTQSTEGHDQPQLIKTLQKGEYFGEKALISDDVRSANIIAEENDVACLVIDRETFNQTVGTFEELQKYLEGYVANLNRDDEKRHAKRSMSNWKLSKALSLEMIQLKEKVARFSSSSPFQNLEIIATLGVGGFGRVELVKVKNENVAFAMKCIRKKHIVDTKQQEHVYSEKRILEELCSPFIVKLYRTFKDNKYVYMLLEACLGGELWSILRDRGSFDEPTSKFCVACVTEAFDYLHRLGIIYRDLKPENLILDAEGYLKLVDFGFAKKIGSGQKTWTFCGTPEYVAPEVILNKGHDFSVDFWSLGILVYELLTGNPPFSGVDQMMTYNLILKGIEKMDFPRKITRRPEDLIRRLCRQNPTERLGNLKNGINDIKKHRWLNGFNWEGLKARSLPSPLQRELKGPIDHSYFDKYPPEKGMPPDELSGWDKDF
Chain of NTRK2 (human) (Q16620 whole entry, looked up): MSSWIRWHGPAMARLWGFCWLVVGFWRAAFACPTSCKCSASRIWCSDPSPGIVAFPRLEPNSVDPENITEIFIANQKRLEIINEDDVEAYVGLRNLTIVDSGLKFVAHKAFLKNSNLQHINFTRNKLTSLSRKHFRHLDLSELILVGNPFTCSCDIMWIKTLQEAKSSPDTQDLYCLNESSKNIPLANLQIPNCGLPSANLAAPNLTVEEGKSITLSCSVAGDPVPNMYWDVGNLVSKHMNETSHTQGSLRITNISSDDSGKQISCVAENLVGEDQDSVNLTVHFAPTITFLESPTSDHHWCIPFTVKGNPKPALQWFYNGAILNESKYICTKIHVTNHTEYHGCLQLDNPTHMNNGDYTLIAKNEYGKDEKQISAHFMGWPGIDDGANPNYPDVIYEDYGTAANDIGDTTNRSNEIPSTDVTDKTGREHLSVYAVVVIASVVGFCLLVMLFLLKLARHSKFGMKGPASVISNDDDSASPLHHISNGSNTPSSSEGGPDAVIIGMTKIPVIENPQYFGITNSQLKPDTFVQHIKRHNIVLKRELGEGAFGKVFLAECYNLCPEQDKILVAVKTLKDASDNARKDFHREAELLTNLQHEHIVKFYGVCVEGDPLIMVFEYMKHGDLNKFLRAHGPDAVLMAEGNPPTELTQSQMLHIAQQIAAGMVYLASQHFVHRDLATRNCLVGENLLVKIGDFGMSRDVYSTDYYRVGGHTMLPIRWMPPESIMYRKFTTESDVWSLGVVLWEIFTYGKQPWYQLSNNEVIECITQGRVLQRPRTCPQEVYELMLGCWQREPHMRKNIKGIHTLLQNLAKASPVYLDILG
Chain of RPS6KA6 KD1 KD2 (human) (Q9UK32 whole entry, looked up): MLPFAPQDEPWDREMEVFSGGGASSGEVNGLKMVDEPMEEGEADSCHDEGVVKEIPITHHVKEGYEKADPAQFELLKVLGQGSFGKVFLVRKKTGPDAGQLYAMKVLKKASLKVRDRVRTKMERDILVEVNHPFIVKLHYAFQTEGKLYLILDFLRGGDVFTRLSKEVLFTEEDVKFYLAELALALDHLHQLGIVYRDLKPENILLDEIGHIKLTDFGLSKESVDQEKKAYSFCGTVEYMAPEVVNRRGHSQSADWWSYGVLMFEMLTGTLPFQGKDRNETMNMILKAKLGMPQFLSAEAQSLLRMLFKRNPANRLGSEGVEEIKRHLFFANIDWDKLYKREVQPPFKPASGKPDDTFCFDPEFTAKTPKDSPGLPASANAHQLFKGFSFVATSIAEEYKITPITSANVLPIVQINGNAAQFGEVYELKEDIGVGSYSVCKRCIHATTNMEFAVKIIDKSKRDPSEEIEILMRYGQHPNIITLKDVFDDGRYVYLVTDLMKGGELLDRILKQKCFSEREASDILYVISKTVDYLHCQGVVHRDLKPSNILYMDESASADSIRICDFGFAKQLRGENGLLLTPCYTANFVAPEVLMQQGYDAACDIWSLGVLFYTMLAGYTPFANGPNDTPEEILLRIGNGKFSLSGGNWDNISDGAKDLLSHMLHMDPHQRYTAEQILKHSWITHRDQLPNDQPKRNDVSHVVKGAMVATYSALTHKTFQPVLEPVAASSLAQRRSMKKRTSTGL
Chain of TSSK1B (human) (Q9BXA7 whole entry, looked up): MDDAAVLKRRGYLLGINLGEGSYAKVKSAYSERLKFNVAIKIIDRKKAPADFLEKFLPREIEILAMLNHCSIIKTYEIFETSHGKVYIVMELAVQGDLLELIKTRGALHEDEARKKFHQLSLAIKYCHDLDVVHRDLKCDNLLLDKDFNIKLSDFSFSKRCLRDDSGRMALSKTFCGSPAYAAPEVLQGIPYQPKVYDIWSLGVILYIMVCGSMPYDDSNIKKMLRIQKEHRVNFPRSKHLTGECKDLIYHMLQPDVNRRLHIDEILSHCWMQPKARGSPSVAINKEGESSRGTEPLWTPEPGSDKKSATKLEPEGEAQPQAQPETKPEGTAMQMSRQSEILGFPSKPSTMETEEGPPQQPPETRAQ

The first test concerns the target CAMKK1 (human) (UniProt Q8N5S9). Description: radiometric filter-binding kinase assay, Kinase HotSpot. The following applies: compound 0.5 µM; ATP 10 µM.
With `Oc1ccc(Nc2nc(-c3ccc(Cl)cc3)cs2)cc1`, the residual activity worked out at 124%.
Turning to `O=C1Nc2ccccc2/C1=C1/Nc2ccccc2/C1=N\OCCC(O)CO` (stereo unspecified), the residual activity amounted to 26.2%.
With `O=C1NC(=O)C(c2c[nH]c3ccccc23)=C1c1c[nH]c2ccccc12`, the residual activity is 114%.

The target of a further test is CDK1 CCNA2 (human) (UniProt P06493+P20248). The description is as above. The settings on record: compound 0.5 µM; ATP 10 µM.
As to `Oc1ccc(Nc2nc(-c3ccc(Cl)cc3)cs2)cc1`, the residual activity amounted to 91.2%.
On the same count and under the same terms, to `O=C1Nc2ccccc2/C1=C1/Nc2ccccc2/C1=N\OCCC(O)CO` (stereo unspecified) belongs 56.7%; to `O=C1NC(=O)C(c2c[nH]c3ccccc23)=C1c1c[nH]c2ccccc12`, 96.3%.

A further test concerns the target ALK (human) (UniProt Q9UM73). The test is described as above. The settings on record: compound 0.5 µM; ATP 10 µM.
On to `Oc1ccc(Nc2nc(-c3ccc(Cl)cc3)cs2)cc1`, for which the residual activity worked out at 111%.
The same measure, in the same setting: to `O=C1Nc2ccccc2/C1=C1/Nc2ccccc2/C1=N\OCCC(O)CO` (stereo unspecified) belongs 38.1%.
Still for that read-out and setting: the same measure for `O=C1NC(=O)C(c2c[nH]c3ccccc23)=C1c1c[nH]c2ccccc12`: 95.7%.

For the next test, the target named is SRC (human) (UniProt P12931). Described as above. The following applies: compound 0.5 µM; ATP 10 µM.
As for `Oc1ccc(Nc2nc(-c3ccc(Cl)cc3)cs2)cc1`, the residual activity was 95.1%.
Still for that read-out and setting: to `O=C1Nc2ccccc2/C1=C1/Nc2ccccc2/C1=N\OCCC(O)CO` (stereo unspecified) belongs 22.6%; to `O=C1NC(=O)C(c2c[nH]c3ccccc23)=C1c1c[nH]c2ccccc12`, 93.7%.

The next test concerns the target TSSK1B (human) (UniProt Q9BXA7). Described as above. The settings on record: compound 0.5 µM; ATP 10 µM.
Take `Oc1ccc(Nc2nc(-c3ccc(Cl)cc3)cs2)cc1`: the residual activity is 119%.
Still for that read-out and setting: the same measure for `O=C1Nc2ccccc2/C1=C1/Nc2ccccc2/C1=N\OCCC(O)CO` (stereo unspecified): 76.6%; for `O=C1NC(=O)C(c2c[nH]c3ccccc23)=C1c1c[nH]c2ccccc12`: 106%.

The next test has as its target PRKG2 (human) (UniProt Q13237). The description is as above. The settings on record: compound 0.5 µM; ATP 10 µM.
In the case of `Oc1ccc(Nc2nc(-c3ccc(Cl)cc3)cs2)cc1`, the residual activity is 92.9%.
For `O=C1Nc2ccccc2/C1=C1/Nc2ccccc2/C1=N\OCCC(O)CO` (stereo unspecified), the residual activity turned out to be 28.1%.
The same measure, in the same setting: the same measure for `O=C1NC(=O)C(c2c[nH]c3ccccc23)=C1c1c[nH]c2ccccc12`: 52.6%.

The next test addresses DYRK3 (human) (UniProt O43781). Described as above. The settings on record: compound 0.5 µM; ATP 10 µM.
In the case of `Oc1ccc(Nc2nc(-c3ccc(Cl)cc3)cs2)cc1`, the residual activity was 101%.
For the molecule `O=C1Nc2ccccc2/C1=C1/Nc2ccccc2/C1=N\OCCC(O)CO` (stereo unspecified), the residual activity was determined as 105%.
Still for that read-out and setting: to `O=C1NC(=O)C(c2c[nH]c3ccccc23)=C1c1c[nH]c2ccccc12` belongs 101%.

The next test deals with PIM3 (human) (UniProt Q86V86). The test is described as above. The settings on record: compound 0.5 µM; ATP 10 µM.
Consider `Oc1ccc(Nc2nc(-c3ccc(Cl)cc3)cs2)cc1`, for which the residual activity turned out to be 114%.
On the same count and under the same terms, the same measure for `O=C1Nc2ccccc2/C1=C1/Nc2ccccc2/C1=N\OCCC(O)CO` (stereo unspecified): 58.5%; for `O=C1NC(=O)C(c2c[nH]c3ccccc23)=C1c1c[nH]c2ccccc12`: 32.7%.

A further test addresses MAP3K9 (human) (UniProt P80192). Described as above. The settings on record: compound 0.5 µM; ATP 10 µM.
For `Oc1ccc(Nc2nc(-c3ccc(Cl)cc3)cs2)cc1`, the residual activity came to 80.9%.
Regarding `O=C1Nc2ccccc2/C1=C1/Nc2ccccc2/C1=N\OCCC(O)CO` (stereo unspecified), the residual activity is 7.06%.
Consider `O=C1NC(=O)C(c2c[nH]c3ccccc23)=C1c1c[nH]c2ccccc12`, for which the residual activity stood at 55.4%.

The next test has as its target AKT1 (human) (UniProt P31749). Described as above. The following applies: compound 0.5 µM; ATP 10 µM.
Take `Oc1ccc(Nc2nc(-c3ccc(Cl)cc3)cs2)cc1`: the residual activity came to 106%.
As for `O=C1Nc2ccccc2/C1=C1/Nc2ccccc2/C1=N\OCCC(O)CO` (stereo unspecified), the residual activity came out at 95.6%.
On the same count and under the same terms, to `O=C1NC(=O)C(c2c[nH]c3ccccc23)=C1c1c[nH]c2ccccc12` belongs 87.7%.

A further test concerns the target MAPK1 (human) (UniProt P28482). The test is described as above. The settings on record: compound 0.5 µM; ATP 10 µM.
Consider `Oc1ccc(Nc2nc(-c3ccc(Cl)cc3)cs2)cc1`, for which the residual activity came to 106%.
Still for that read-out and setting: the same measure for `O=C1Nc2ccccc2/C1=C1/Nc2ccccc2/C1=N\OCCC(O)CO` (stereo unspecified): 89.8%; for `O=C1NC(=O)C(c2c[nH]c3ccccc23)=C1c1c[nH]c2ccccc12`: 90.5%.

For the next test, the target named is PAK4 (human) (UniProt O96013). The description is as above. The following applies: compound 0.5 µM; ATP 10 µM.
Chain of PAK4 (human) (O96013 whole entry, looked up): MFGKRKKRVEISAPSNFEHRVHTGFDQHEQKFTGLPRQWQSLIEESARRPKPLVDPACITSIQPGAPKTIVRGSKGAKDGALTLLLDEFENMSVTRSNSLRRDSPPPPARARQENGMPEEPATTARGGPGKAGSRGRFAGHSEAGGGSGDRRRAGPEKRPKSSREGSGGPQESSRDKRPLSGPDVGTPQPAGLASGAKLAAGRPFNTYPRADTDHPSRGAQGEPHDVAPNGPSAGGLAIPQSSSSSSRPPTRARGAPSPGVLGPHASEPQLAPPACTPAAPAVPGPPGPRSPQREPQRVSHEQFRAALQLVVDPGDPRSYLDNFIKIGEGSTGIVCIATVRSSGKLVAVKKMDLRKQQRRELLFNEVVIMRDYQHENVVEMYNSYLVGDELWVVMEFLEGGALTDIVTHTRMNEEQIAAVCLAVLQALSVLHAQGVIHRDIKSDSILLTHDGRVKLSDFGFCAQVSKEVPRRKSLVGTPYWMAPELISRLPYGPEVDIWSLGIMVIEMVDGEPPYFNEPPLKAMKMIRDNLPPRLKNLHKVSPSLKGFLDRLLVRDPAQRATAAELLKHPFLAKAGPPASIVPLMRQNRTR
For the molecule `Oc1ccc(Nc2nc(-c3ccc(Cl)cc3)cs2)cc1`, the residual activity turned out to be 102%.
Still for that read-out and setting: to `O=C1Nc2ccccc2/C1=C1/Nc2ccccc2/C1=N\OCCC(O)CO` (stereo unspecified) belongs 84.5%; to `O=C1NC(=O)C(c2c[nH]c3ccccc23)=C1c1c[nH]c2ccccc12`, 102%.

A further test deals with PRKCG (human) (UniProt P05129). The description is as above. The settings on record: compound 0.5 µM; ATP 10 µM.
Regarding `Oc1ccc(Nc2nc(-c3ccc(Cl)cc3)cs2)cc1`, the residual activity was found to be 87.3%.
For the molecule `O=C1Nc2ccccc2/C1=C1/Nc2ccccc2/C1=N\OCCC(O)CO` (stereo unspecified), the residual activity is 92%.
The same measure, in the same setting: to `O=C1NC(=O)C(c2c[nH]c3ccccc23)=C1c1c[nH]c2ccccc12` belongs 91.4%.

A further test deals with MAP3K3 (human) (UniProt Q99759). The description is as above. The following applies: compound 0.5 µM; ATP 10 µM.
Regarding `Oc1ccc(Nc2nc(-c3ccc(Cl)cc3)cs2)cc1`, the residual activity was determined as 101%.
Regarding `O=C1Nc2ccccc2/C1=C1/Nc2ccccc2/C1=N\OCCC(O)CO` (stereo unspecified), the residual activity is 87.8%.
Take `O=C1NC(=O)C(c2c[nH]c3ccccc23)=C1c1c[nH]c2ccccc12`: the residual activity was 127%.

A further test has as its target WNK3 (human) (UniProt Q9BYP7). Described as above. The settings on record: compound 0.5 µM; ATP 10 µM.
For `Oc1ccc(Nc2nc(-c3ccc(Cl)cc3)cs2)cc1`, the residual activity was 98.7%.
With `O=C1Nc2ccccc2/C1=C1/Nc2ccccc2/C1=N\OCCC(O)CO` (stereo unspecified), the residual activity worked out at 79.7%.
Same read-out and setting: the same measure for `O=C1NC(=O)C(c2c[nH]c3ccccc23)=C1c1c[nH]c2ccccc12`: 98.3%.

The next test has as its target RPS6KA6 KD1 KD2 (human) (UniProt Q9UK32). Described as above. The following applies: compound 0.5 µM; ATP 10 µM.
As for `Oc1ccc(Nc2nc(-c3ccc(Cl)cc3)cs2)cc1`, the residual activity was determined as 117%.
Still for that read-out and setting: the same measure for `O=C1Nc2ccccc2/C1=C1/Nc2ccccc2/C1=N\OCCC(O)CO` (stereo unspecified): 16.4%; for `O=C1NC(=O)C(c2c[nH]c3ccccc23)=C1c1c[nH]c2ccccc12`: 19.2%.

A further test addresses DYRK1B (human) (UniProt Q9Y463). The description is as above. The following applies: compound 0.5 µM; ATP 10 µM.
`Oc1ccc(Nc2nc(-c3ccc(Cl)cc3)cs2)cc1`: the residual activity was 106%.
Still for that read-out and setting: the same measure for `O=C1Nc2ccccc2/C1=C1/Nc2ccccc2/C1=N\OCCC(O)CO` (stereo unspecified): 65.1%; for `O=C1NC(=O)C(c2c[nH]c3ccccc23)=C1c1c[nH]c2ccccc12`: 86.8%.

The target in a further test is MAP3K5 (human) (UniProt Q99683). The description is as above. The settings on record: compound 0.5 µM; ATP 10 µM.
Chain of MAP3K5 (human) (Q99683 whole entry, looked up): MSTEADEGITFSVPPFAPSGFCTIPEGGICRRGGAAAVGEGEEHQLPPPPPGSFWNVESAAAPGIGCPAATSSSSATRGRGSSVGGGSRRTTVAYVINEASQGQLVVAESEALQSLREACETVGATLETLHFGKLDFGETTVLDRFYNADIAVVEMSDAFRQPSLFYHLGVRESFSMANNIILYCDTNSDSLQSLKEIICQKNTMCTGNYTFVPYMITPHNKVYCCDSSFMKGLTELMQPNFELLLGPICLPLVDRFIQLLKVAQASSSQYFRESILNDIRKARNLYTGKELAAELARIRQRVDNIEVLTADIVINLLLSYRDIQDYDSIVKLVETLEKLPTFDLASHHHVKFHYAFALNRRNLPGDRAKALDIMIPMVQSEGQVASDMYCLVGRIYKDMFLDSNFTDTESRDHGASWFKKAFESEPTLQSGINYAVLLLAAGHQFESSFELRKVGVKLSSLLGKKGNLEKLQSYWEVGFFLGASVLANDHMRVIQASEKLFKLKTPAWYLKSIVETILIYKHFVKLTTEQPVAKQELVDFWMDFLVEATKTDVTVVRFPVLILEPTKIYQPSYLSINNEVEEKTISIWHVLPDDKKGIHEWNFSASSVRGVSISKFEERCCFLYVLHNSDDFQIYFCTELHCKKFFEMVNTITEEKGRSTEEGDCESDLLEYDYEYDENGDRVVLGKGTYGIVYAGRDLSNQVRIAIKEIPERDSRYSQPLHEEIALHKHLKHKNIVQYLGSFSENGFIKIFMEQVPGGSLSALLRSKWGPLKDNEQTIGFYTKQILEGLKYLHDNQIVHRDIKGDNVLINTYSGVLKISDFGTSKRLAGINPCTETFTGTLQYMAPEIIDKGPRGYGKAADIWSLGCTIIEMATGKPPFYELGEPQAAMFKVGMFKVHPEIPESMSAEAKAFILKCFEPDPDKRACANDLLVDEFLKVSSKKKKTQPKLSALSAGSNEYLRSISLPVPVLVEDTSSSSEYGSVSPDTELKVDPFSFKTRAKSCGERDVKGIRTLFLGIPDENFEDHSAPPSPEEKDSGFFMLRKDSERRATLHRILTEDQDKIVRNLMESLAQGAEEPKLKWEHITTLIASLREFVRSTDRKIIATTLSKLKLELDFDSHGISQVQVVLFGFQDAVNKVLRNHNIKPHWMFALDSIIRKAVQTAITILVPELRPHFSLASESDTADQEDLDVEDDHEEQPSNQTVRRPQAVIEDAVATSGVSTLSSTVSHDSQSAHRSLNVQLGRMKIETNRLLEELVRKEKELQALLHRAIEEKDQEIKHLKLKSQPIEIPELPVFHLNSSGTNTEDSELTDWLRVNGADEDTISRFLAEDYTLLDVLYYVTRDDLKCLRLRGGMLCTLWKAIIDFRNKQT
As for `Oc1ccc(Nc2nc(-c3ccc(Cl)cc3)cs2)cc1`, the residual activity is 108%.
Turning to `O=C1Nc2ccccc2/C1=C1/Nc2ccccc2/C1=N\OCCC(O)CO` (stereo unspecified), the residual activity was determined as 91.2%.
Still for that read-out and setting: to `O=C1NC(=O)C(c2c[nH]c3ccccc23)=C1c1c[nH]c2ccccc12` belongs 106%.

The target in the next test is CSNK1G3 (human) (UniProt Q9Y6M4). Described as above. The following applies: compound 0.5 µM; ATP 10 µM.
For the molecule `Oc1ccc(Nc2nc(-c3ccc(Cl)cc3)cs2)cc1`, the residual activity turned out to be 103%.
For `O=C1Nc2ccccc2/C1=C1/Nc2ccccc2/C1=N\OCCC(O)CO` (stereo unspecified), the residual activity amounted to 90.7%.
With `O=C1NC(=O)C(c2c[nH]c3ccccc23)=C1c1c[nH]c2ccccc12`, the residual activity is 89.9%.

A further test addresses NTRK2 (human) (UniProt Q16620). Described as above. The following applies: compound 0.5 µM; ATP 10 µM.
Take `Oc1ccc(Nc2nc(-c3ccc(Cl)cc3)cs2)cc1`: the residual activity is 107%.
As to `O=C1Nc2ccccc2/C1=C1/Nc2ccccc2/C1=N\OCCC(O)CO` (stereo unspecified), the residual activity came out at 1.62%.
Same read-out and setting: to `O=C1NC(=O)C(c2c[nH]c3ccccc23)=C1c1c[nH]c2ccccc12` belongs 90.7%.

Another test deals with CDK3 CCNE1 (human) (UniProt Q00526+P24864). The description is as above. The following applies: compound 0.5 µM; ATP 10 µM.
For the molecule `Oc1ccc(Nc2nc(-c3ccc(Cl)cc3)cs2)cc1`, the residual activity came to 99%.

A word on the residual activity: it is the signal under treatment as a percentage of the control signal.

The record behind these values is the kinase profiling compilation of Christmann-Franck et al. (2016).
